Test systems include 786-0 renal; COLO 205 colon; EKVX NSCLC; HOP-62 NSCLC; K-562 leukemia; MDA-MB-231 breast; NCI-H23 lung; PC-3 prostate; TK-10 renal; UACC-62 melanoma.
What all share (test): DTP human tumour cell line panel, 48 h

GI50 and TGI data for seven molecules are collected here from PubChem BioAssay (NCI).

“And” between values parts separate entries of the source, which are not always exact repeats. Equal entries are not always repeated.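 Assay format: 96-well plates, 48-hour exposure. GI50 is the concentration that inhibits growth by half. TGI: total growth inhibition.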 Some results are limits rather than exact numbers.

`COc1cc(Nc2nc3cc(N)cc(N)c3nc2-c2ccccc2)cc(OC)c1OC`: the GI50 (usually the concentration that inhibits growth by half) in the assay with 786-0 renal was 14.6 µM; in the assay with COLO 205 colon it was 14 µM; with EKVX NSCLC, 17.6 µM; with HOP-62 NSCLC, 16.3 µM; in the assay on K-562 leukemia, 12.5 µM; in the assay with MDA-MB-231 breast it was 11.1 µM. Also, the GI50 in the assay with NCI-H23 lung is 24.9 µM; in the assay with PC-3 prostate, 14.2 µM; with TK-10 renal, 23.9 µM; in the assay on UACC-62 melanoma, 13.6 µM. Further, the concentration for total growth inhibition (TGI) (in general, the concentration giving total growth inhibition) stood at 40.3 µM in the assay with 786-0 renal; 27.1 µM with COLO 205 colon; 47.4 µM in the assay on EKVX NSCLC; 34.3 µM in the assay with HOP-62 NSCLC; 40.1 µM in the assay on K-562 leukemia; 29.2 µM with MDA-MB-231 breast. Also, the TGI in the assay on NCI-H23 lung came out at 76.7 µM; with PC-3 prostate it was 59.3 µM; in the assay with TK-10 renal, 66.5 µM; in the assay with UACC-62 melanoma, 31.8 µM.

As for `O=Nc1ccc(O)c(=O)cc1`, the GI50 in the assay with 786-0 renal is 2.18 µM; in the assay on COLO 205 colon it was 1.08 µM; in the assay on EKVX NSCLC, 6.93 µM; with HOP-62 NSCLC, 7.45 µM; in the assay with K-562 leukemia, 0.498 µM; in the assay with MDA-MB-231 breast, 2.31 µM. The GI50 in the assay with NCI-H23 lung was 3.04 µM; in the assay on PC-3 prostate it was 3.77 µM; in the assay with TK-10 renal, 1.82 µM; in the assay with UACC-62 melanoma, 2.01 µM. The TGI in the assay on 786-0 renal is 5.52 µM; in the assay on COLO 205 colon it was 3.45 µM; in the assay with EKVX NSCLC, 23.4 µM; in the assay on HOP-62 NSCLC it was 23.2 µM; in the assay with K-562 leukemia, above 100 µM; with MDA-MB-231 breast it was 8.79 µM. Besides, the total growth inhibition concentration (TGI) with NCI-H23 lung came out at 12 µM; with PC-3 prostate it was 16.2 µM; in the assay with TK-10 renal, 9.18 µM; in the assay on UACC-62 melanoma, 5.68 µM.

For the molecule `CCC(C)[C@H]1O[C@]2(CC[C@@H]1C)C[C@@H]1C[C@@H](C/C=C(\C)[C@@H](OC3C[C@H](OC)C(O[C@H]4C[C@H](OC)[C@@H](O)[C@H](C)O4)[C@H](C)O3)[C@@H](C)/C=C/C=C3\CO[C@@H]4[C@H](O)C(C)=C[C@@H](C(=O)O1)[C@]34O)O2` (stereo partly drawn), the GI50 was 3.66 µM with 786-0 renal; 1.63 µM in the assay with COLO 205 colon; 2.95 µM with EKVX NSCLC; 1.8 µM in the assay on HOP-62 NSCLC; 3.88 µM with K-562 leukemia; 2.31 µM in the assay on MDA-MB-231 breast. Besides, the GI50 with NCI-H23 lung is 3.21 µM; in the assay with PC-3 prostate, 2.64 µM; in the assay on TK-10 renal, 3.08 µM; in the assay on UACC-62 melanoma it was 1.89 µM. Further, the total growth inhibition concentration (TGI) is 14 µM with 786-0 renal; 3.1 µM in the assay on COLO 205 colon; 15.1 µM with EKVX NSCLC; 4.85 µM with HOP-62 NSCLC; 15.4 µM in the assay with K-562 leukemia; 6.85 µM with MDA-MB-231 breast. Moreover, the TGI in the assay with NCI-H23 lung was determined as 13.7 µM; in the assay on PC-3 prostate, 12.8 µM; in the assay on TK-10 renal, 12.7 µM; in the assay on UACC-62 melanoma, 6.5 µM.

For the molecule `Nc1nccc(-c2c(-c3ccc(F)cc3)ncn2C2CCNCC2)n1`, the GI50 in the assay with 786-0 renal is 16 µM and 5.59 µM; in the assay with COLO 205 colon, 0.623 µM and 1.01 µM; with EKVX NSCLC it was > 25 µM and 5.01 µM; with HOP-62 NSCLC, 5.29 µM and 3.85 µM; with K-562 leukemia, 5.92 µM and 2.92 µM; with MDA-MB-231 breast it was > 25 µM and 3.97 µM. In addition, the GI50 was 9.71 µM and 4.41 µM in the assay on NCI-H23 lung; 13.6 µM and 4.05 µM in the assay with PC-3 prostate; 7.66 µM and 2.79 µM in the assay with TK-10 renal; 11.1 µM and 4.61 µM with UACC-62 melanoma. Also, the TGI is above 25 µM with 786-0 renal; > 7.09 µM and 11.1 µM in the assay on COLO 205 colon; > 25 µM and 24.8 µM in the assay on EKVX NSCLC; above 25 µM in the assay with HOP-62 NSCLC; above 25 µM in the assay on K-562 leukemia; above 25 µM in the assay with MDA-MB-231 breast. The TGI in the assay on NCI-H23 lung is > 25 µM and 18.8 µM; in the assay on PC-3 prostate, above 25 µM; in the assay on TK-10 renal it was > 25 µM and 14.8 µM; in the assay with UACC-62 melanoma, above 25 µM.

With `CCOC(=O)/C(=C/N1CCN(C(=O)c2ccco2)C1=S)C(=O)c1ccccc1`, the GI50 in the assay with 786-0 renal is 12.9 µM; with COLO 205 colon, 19.2 µM; in the assay on EKVX NSCLC it was 9.53 µM; in the assay with HOP-62 NSCLC, 17.3 µM; in the assay with K-562 leukemia, 15.7 µM; with MDA-MB-231 breast, 10.8 µM. Moreover, the GI50 in the assay on NCI-H23 lung was 7.7 µM; with PC-3 prostate, 19.4 µM; in the assay with TK-10 renal, 12.4 µM; in the assay with UACC-62 melanoma, 7.64 µM. Also, the TGI is 45.2 µM in the assay with 786-0 renal; above 50 µM with COLO 205 colon; 23.7 µM with EKVX NSCLC; above 50 µM in the assay on HOP-62 NSCLC; above 50 µM in the assay with K-562 leukemia; 33.2 µM with MDA-MB-231 breast. The TGI in the assay on NCI-H23 lung was 14.7 µM; in the assay on PC-3 prostate, above 50 µM; with TK-10 renal, 34 µM; in the assay on UACC-62 melanoma it was 17.5 µM.

In the case of `Cc1cccc(N(C)C(=O)[C@@H]2[C@H](O)CCN2c2nc(C)cc(C(F)(F)F)c2C#N)c1`, the GI50 with 786-0 renal is 21.6 µM; in the assay with COLO 205 colon it was 17.3 µM; in the assay on EKVX NSCLC, 24.6 µM; with HOP-62 NSCLC it was 25.8 µM; in the assay on K-562 leukemia it was 0.747 µM; in the assay with MDA-MB-231 breast, 19.3 µM. Also, the GI50 was 31.2 µM in the assay with NCI-H23 lung, 15.4 µM in the assay with PC-3 prostate, 28.5 µM in the assay with TK-10 renal and 21.9 µM with UACC-62 melanoma. The TGI was 66.9 µM in the assay on 786-0 renal; 34 µM with COLO 205 colon; above 100 µM in the assay with EKVX NSCLC; above 100 µM in the assay with HOP-62 NSCLC; above 100 µM in the assay with K-562 leukemia; 46 µM in the assay on MDA-MB-231 breast. For the same molecule, the TGI was above 100 µM in the assay on NCI-H23 lung, 67.2 µM with PC-3 prostate, above 100 µM in the assay on TK-10 renal and 74.5 µM in the assay on UACC-62 melanoma.

Turning to `Cc1nc([P+](c2ccccc2)(c2ccccc2)c2ccccc2)c(Sc2sc(-c3ccccc3)nc2[P+](c2ccccc2)(c2ccccc2)c2ccccc2)o1`, the GI50 with 786-0 renal was 2.34 µM; with EKVX NSCLC, 1.1 µM; with HOP-62 NSCLC, 2.08 µM; with K-562 leukemia, 0.368 µM; in the assay on MDA-MB-231 breast it was 1.86 µM; in the assay with NCI-H23 lung it was 1.99 µM. In addition, the GI50 in the assay on PC-3 prostate was 1.04 µM; in the assay on TK-10 renal it was 2.09 µM; in the assay on UACC-62 melanoma, 1.51 µM. In addition, the TGI turned out to be 11.2 µM in the assay on 786-0 renal; 5.64 µM in the assay on EKVX NSCLC; 13.2 µM in the assay on HOP-62 NSCLC; 5.9 µM in the assay on K-562 leukemia; 6.27 µM in the assay on MDA-MB-231 breast; 5.92 µM in the assay on NCI-H23 lung. The TGI in the assay with PC-3 prostate is 2.72 µM; with TK-10 renal, 7.63 µM; in the assay on UACC-62 melanoma, 3.67 µM.
